“And” between values parts separate entries of the source, which are not always exact repeats. Identical values can stand only once.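 In this assay, cells in 96-well plates receive the compound at five concentrations for 48 hours. Endpoints are linearly interpolated between the surrounding concentrations. GI50 = concentration required for 50% inhibition of growth. TGI: total growth inhibition.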
Key:
Test in all cases: DTP human tumour cell line panel, 48 h
SF-268 CNS = test system: SF-268 CNS
ACHN renal = test system: ACHN renal
MALME-3M melanoma = test system: MALME-3M melanoma
NCI-H226 lung = test system: NCI-H226 lung
SK-MEL-2 melanoma = test system: SK-MEL-2 melanoma
M14 melanoma = test system: M14 melanoma
OVCAR-4 ovarian = test system: OVCAR-4 ovarian
K-562 leukemia = test system: K-562 leukemia
OVCAR-5 ovarian = test system: OVCAR-5 ovarian
OVCAR-8 ovarian = test system: OVCAR-8 ovarian

Row | SMILES | GI50 (SF-268 CNS) | TGI (SF-268 CNS) | GI50 (ACHN renal) | TGI (ACHN renal) | GI50 (MALME-3M melanoma) | TGI (MALME-3M melanoma) | GI50 (NCI-H226 lung) | TGI (NCI-H226 lung) | GI50 (SK-MEL-2 melanoma) | TGI (SK-MEL-2 melanoma) | GI50 (M14 melanoma) | TGI (M14 melanoma) | GI50 (OVCAR-4 ovarian) | TGI (OVCAR-4 ovarian) | GI50 (K-562 leukemia) [µM] | TGI (K-562 leukemia) | GI50 (OVCAR-5 ovarian) | TGI (OVCAR-5 ovarian) | GI50 (OVCAR-8 ovarian) | TGI (OVCAR-8 ovarian)
1 | COc1ccc(C(=O)c2cc3c(N)c(C(=O)Nc4ccc(C)cc4)sc3nc2C)cc1 | 5.66 µM | 48.7 µM | 5.28 µM | 29.2 µM | 4.46 µM | 39.3 µM | 4.22 µM | 30.8 µM | 4.04 µM | 34.7 µM | 1.99 µM | 62.9 µM | 5.55 µM | > 100 µM | 1.28 | > 100 µM | 7.13 µM | > 100 µM | 5.25 µM | > 100 µM
2 | O=Cc1ccc(-c2ccc(-c3nc4ccccc4o3)cc2)o1 | 29.6 µM | > 100 µM | 21.1 µM | 58.2 µM | 24.6 µM | 65 µM | 17.9 µM | > 100 µM | 66.4 µM | > 100 µM | 44.1 µM | > 100 µM | > 100 µM | > 100 µM | 23.6 | > 100 µM | 29 µM | 95.2 µM | 33.3 µM | > 100 µM
3 | Cc1cc(Cl)ccc1NC(=O)C(=O)C(C(=O)c1ccc2ccccc2c1)C1OC(=O)c2ccccc21 (centres undefined) | – | 60.5 µM | – | > 100 µM | – | 22.8 µM | – | 7.69 µM | – | 27.3 µM | – | 34.3 µM | – | 25.5 µM | – | 33.8 µM | – | 48.4 µM | – | > 100 µM
4 | O=C1C=CC(=O)c2cc(Sc3ccccc3)c(=O)ccc21 | – | 44.4 µM | – | 23.3 µM | – | 36.4 µM | – | 42.9 µM | – | 28.7 µM | – | 41.3 µM | – | 23.2 µM | – | 8.75 µM | – | 36.3 µM | – | 33.9 µM
5 | O=C1/C(=C\c2ccccn2)c2ccccc2N1c1c(Cl)cccc1Cl | 2.96 µM | 9.54 µM | 1.82 µM | 3.91 µM | 1.74 µM | 4.89 µM | 1.7 µM | 3.42 µM | 2.53 µM | 6.32 µM | 1.78 µM | 3.72 µM | 3.14 µM | 26.8 µM | 3.89 | > 100 µM | 2.05 µM | 4.81 µM | 2.41 µM | 8.34 µM
6 | C[N+](C)(C)CC(=O)N/N=C(\C(=O)NC1=C(Cl)C(=O)c2ccccc2C1=O)C(C#N)c1csc(-c2ccc([N+](=O)[O-])cc2)n1 (centres undefined) | – | > 100 µM | – | > 100 µM | – | > 100 µM | – | > 100 µM | – | > 100 µM | – | > 100 µM | – | > 100 µM | – | > 100 µM | – | > 100 µM | – | > 100 µM
7 | Cc1sc2c(c1C)C(c1ccc(Cl)cc1)=N[C@@H](CC(=O)OC(C)(C)C)c1nnc(C)n1-2 | 11.5 µM and 4.73 µM | 26.2 µM and 21.8 µM | 0.67 µM and 0.496 µM | 18.3 µM and 15.8 µM | 11.4 µM and 4.84 µM | 26.4 µM and 22.1 µM | 2.81 µM and 10.3 µM | 22 µM and 22.8 µM | 5.51 µM and 5.34 µM | 21.8 µM and 22.5 µM | 0.436 µM and 0.772 µM | 19.6 µM and 21.7 µM | 0.123 µM and 0.15 µM | 17.2 µM and 16.1 µM | – | 37.5 µM and 15.7 µM | 11.9 µM and 10.4 µM | 25 µM and 22.7 µM | 0.875 µM and 0.62 µM | 26.8 µM and 20.5 µM
8 | CCc1cc(CCC(=O)Nc2c(C)cccc2C)[nH]n1 | – | > 100 µM | – | > 100 µM | – | > 100 µM | – | > 100 µM | – | > 100 µM | – | > 100 µM | – | > 100 µM | – | > 100 µM | – | > 100 µM | – | > 100 µM
9 | NC(=O)c1cccc(Nc2nccc(Nc3cccc4[nH]ncc34)n2)c1 | 8.45 µM | > 25 µM | 10.9 µM | > 25 µM | 24.4 µM | > 25 µM | 5.52 µM | > 20.1 µM | 7.91 µM | 17.8 µM | 9.59 µM | > 25 µM | 13.2 µM | > 25 µM | 4.53 | > 25 µM | 7.5 µM | > 25 µM | 8.11 µM | > 25 µM
10 | COc1cccc(C2c3cc4c(cc3OC(N3CCCC3)C2C)OCO4)c1O (centres undefined) | – | 70.1 µM | – | > 88.7 µM | – | 58.2 µM | – | 35.6 µM | – | 30.4 µM | – | 12.6 µM | – | > 94.2 µM | – | 57.8 µM | – | > 100 µM | – | 42 µM
11 | COC(C(=O)NCCCCNC(=O)C(OC)c1ccccc1)c1ccccc1 (centres undefined) | – | > 100 µM | – | > 100 µM | – | > 100 µM | – | > 100 µM | – | > 100 µM | – | > 100 µM | – | > 100 µM | – | > 100 µM | – | > 100 µM | – | > 100 µM
12 | CN(Cc1cc(Cl)cc(Cl)c1)CC(C(=O)c1ccccc1)c1ccccc1 (centres undefined) | – | 68.6 µM | – | 2.16 µM | – | 24 µM | – | 22.4 µM | – | 29.7 µM | – | 13.5 µM | – | 12.4 µM | – | > 100 µM | – | 19.1 µM | – | 21.2 µM
13 | CN(C)c1nc(=Nc2cccc(Cl)c2)ss1 | – | 30.4 µM | – | 37.2 µM | – | 27.1 µM | – | > 100 µM | – | 42.1 µM | – | 28.4 µM | – | 29.8 µM | – | 41.8 µM | – | 74.6 µM | – | 25.6 µM
